Assay results: ChEMBL document CHEMBL3045843, “Binding of Nicotinoids and the Related Compounds to the Insect Nicotinic Acetyicholine Receptor” (J Pestic Sci, 1992)

Tests used:
Musca domestica = test: Insecticidal activity against Musca domestica (house fly) assessed as mortality relative to nicotine; format: functional
[1] = Disocciation constant, pKa of the compound at 37 degC; format: physicochemical
Acetylcholinesterase = Acetylcholinesterase (Musca domestica, UniProt Q7YWJ9); test: Inhibition of Musca domestica (house fly) acetylcholinesterase
Sequence of Acetylcholinesterase (Q7YWJ9 whole entry): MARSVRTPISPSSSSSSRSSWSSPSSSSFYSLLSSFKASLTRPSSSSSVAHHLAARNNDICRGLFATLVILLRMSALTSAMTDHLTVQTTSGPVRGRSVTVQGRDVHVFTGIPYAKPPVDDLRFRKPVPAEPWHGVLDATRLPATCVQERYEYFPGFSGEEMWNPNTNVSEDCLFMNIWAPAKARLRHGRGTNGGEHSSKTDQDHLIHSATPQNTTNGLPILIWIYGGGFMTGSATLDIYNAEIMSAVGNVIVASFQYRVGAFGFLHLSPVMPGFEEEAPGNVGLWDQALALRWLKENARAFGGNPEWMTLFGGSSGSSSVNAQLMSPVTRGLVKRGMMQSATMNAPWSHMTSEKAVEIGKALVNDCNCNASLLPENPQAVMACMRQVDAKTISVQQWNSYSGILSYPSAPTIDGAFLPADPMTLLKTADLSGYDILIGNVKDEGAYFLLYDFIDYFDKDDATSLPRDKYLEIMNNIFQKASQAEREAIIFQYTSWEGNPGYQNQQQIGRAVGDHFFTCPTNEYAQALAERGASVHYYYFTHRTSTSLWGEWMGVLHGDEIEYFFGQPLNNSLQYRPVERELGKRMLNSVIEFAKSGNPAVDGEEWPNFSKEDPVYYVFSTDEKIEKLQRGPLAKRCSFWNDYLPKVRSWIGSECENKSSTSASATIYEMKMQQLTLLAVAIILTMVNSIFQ

[2] = biological target: T1, Nicotinic acetylcholine receptor alpha 5 subunit (Musca domestica, UniProt A9XFY4); test: Displacement of [3H]alpha-bungarotoxin from nAChR in Musca domestica (house fly) head membrane after 60 min by scintillation counting
T1 sequence (A9XFY4 whole entry): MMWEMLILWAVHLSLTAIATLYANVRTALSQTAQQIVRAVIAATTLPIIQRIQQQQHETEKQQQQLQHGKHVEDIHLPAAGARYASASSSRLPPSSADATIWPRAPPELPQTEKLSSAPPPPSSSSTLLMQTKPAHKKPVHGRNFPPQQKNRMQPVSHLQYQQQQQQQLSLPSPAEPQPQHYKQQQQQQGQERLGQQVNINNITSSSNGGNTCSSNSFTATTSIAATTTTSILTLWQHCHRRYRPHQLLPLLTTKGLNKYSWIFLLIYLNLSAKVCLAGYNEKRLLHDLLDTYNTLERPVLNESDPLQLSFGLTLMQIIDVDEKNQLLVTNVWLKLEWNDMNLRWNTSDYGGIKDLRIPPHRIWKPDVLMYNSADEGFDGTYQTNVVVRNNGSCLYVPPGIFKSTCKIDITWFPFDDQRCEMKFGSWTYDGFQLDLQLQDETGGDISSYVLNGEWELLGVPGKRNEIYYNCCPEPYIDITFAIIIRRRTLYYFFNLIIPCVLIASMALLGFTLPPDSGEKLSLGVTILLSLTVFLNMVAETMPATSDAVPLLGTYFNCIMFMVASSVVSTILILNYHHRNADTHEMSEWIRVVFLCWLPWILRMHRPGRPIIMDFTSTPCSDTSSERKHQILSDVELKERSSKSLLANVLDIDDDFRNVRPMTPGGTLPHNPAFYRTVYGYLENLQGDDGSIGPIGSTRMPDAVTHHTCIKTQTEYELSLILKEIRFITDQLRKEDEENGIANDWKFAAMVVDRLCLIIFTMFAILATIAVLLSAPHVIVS

[3] = Displacement of [3H]alpha-bungarotoxin from nAChR in honeybee head membrane after 60 min by scintillation counting; format: cell membranes, Apis mellifera
[4] = Disocciation constant, pKa of the compound at 25 degC; format: physicochemical

CCN(CC)Cc1cccnc1
fold change (FC) (Musca domestica): 0.46
pKa [1]: 8.12
IC50 (Acetylcholinesterase): 890 µM
Ki [2]: 450 µM
Ki [3]: 155 µM

CCCCN(CCCC)Cc1cccnc1
fold change (FC) (Musca domestica): 0.28
pKa [1]: 8.08
IC50 (Acetylcholinesterase): 2800 µM
Ki [2]: > 1000 µM
Ki [3]: 175 µM

c1cncc(CN2CCCC2)c1 [N-(3-PYRIDYLMETHYL)PYRROLIDINE]
fold change (FC) (Musca domestica): 0.43
pKa [1]: 8.11
IC50 (Acetylcholinesterase): 1400 µM
Ki [2]: 16.4 µM
Ki [3]: 14.3 µM

CCCCNCc1cccnc1
fold change (FC) (Musca domestica): 0.16
pKa [1]: 8.66
IC50 (Acetylcholinesterase): 23000 µM
Ki [2]: > 1000 µM
Ki [3]: 406 µM

CCC[C@H]1CCCCN1 [CONIINE]
Ki [2]: > 1000 µM
Ki [3]: 262 µM

c1cncc([C@@H]2CCCCN2)c1 [ANABASINE]
pKa [1]: 8.48
pKa [4]: 8.7

CCN(CC)Cc1ccncc1
fold change (FC) (Musca domestica): 0.1
pKa [1]: 7.96
IC50 (Acetylcholinesterase): 7700 µM

C[N+]1(C)CCN(c2ccccc2)CC1 [DIMETHYLPHENYLPIPERAZINIUM]
Ki [2]: 86.3 µM
Ki [3]: 49.5 µM

CN(C)Cc1ccncc1
Ki [2]: > 1000 µM
Ki [3]: > 1000 µM

c1cncc(C2=NCCC2)c1 [MYOSMINE]
fold change (FC) (Musca domestica): 0.36
pKa [1]: 5.23
IC50 (Acetylcholinesterase): 6800 µM
pKa [4]: 5.5
Ki [2]: > 1000 µM
Ki [3]: > 1000 µM

c1cncc([C@@H]2CCCN2)c1 (racemic) [NORNICOTINE]
fold change (FC) (Musca domestica): 0.3
IC50 (Acetylcholinesterase): 9700 µM
Ki [2]: 8.77 µM
Ki [3]: 7.61 µM

N#C/N=C1/NCCN1/C=N/c1ccccc1
Ki [2]: > 500 µM
Ki [3]: > 500 µM

CN1CCC[C@@H]1c1cccnc1 [R-NICOTINE]
fold change (FC) (Musca domestica): 1
IC50 (Acetylcholinesterase): 230 µM
Ki [2]: 59.9 µM
Ki [3]: 43.7 µM

c1cncc([C@@H]2CCCN2)c1 [NORNICOTINE]
pKa [1]: 8.76
IC50 (Acetylcholinesterase): 4200 µM
pKa [4]: 9

CN(C)Cc1cccnc1
fold change (FC) (Musca domestica): 0.45
pKa [1]: 7.76
IC50 (Acetylcholinesterase): 5100 µM
Ki [2]: 201 µM
Ki [3]: 208 µM

Cn1cccc1-c1cccnc1 [NICOTYRINE]
fold change (FC) (Musca domestica): 0.18
pKa [1]: 4.5
IC50 (Acetylcholinesterase): 2300 µM
pKa [4]: 4.7
Ki [2]: > 1000 µM
Ki [3]: > 1000 µM

O=C1N(Cc2ccccc2)C2C[S+]3CCCC3C2N1Cc1ccccc1 (stereo not drawn) [TRIMETHAPHAN]
Ki [2]: 2.75 µM
Ki [3]: 5.79 µM

CCOc1ccccc1Cn1nc(OC)oc1=O
Ki [2]: > 100 µM
Ki [3]: > 100 µM

CNCc1cccnc1
fold change (FC) (Musca domestica): 0.3
pKa [1]: 8.3
IC50 (Acetylcholinesterase): 31000 µM
Ki [2]: 600 µM
Ki [3]: 377 µM

C[N+](C)(C)CCOC(N)=O [CARBACHOL]
Ki [2]: 212 µM
Ki [3]: 175 µM

c1cncc(CN2CCOCC2)c1
fold change (FC) (Musca domestica): 0.04
pKa [1]: 5.76
Ki [2]: > 1000 µM
Ki [3]: > 1000 µM

C[N+]1(CCCCC[N+]2(C)CCCC2)CCCC1 [PENTOLINIUM]
Ki [2]: 108 µM
Ki [3]: 72.2 µM

CCCNCc1cccnc1
fold change (FC) (Musca domestica): 0.15
pKa [1]: 8.38
IC50 (Acetylcholinesterase): 17000 µM
Ki [2]: > 1000 µM
Ki [3]: > 1000 µM
